Values of other authors in US20060286183A1, “Diet supplement for causing rapid weight loss, controlling appetite, managing stress, supporting relaxation, combating fatigue and supporting mental well-being” (priority 2005, published 2006).

Assays:
[1] = test system: 5-alpha-reductase
[2] = humans
[3] = animals
[4] = in vivo
[5] = lean and obese rats
[6] = compared with vitamin C and E
[7] = target: glutamate dehydrogenase (Homo sapiens, UniProt P00367)
[8] = target: T1, catechol-O-methyl-transferase (COMT) (Homo sapiens, UniProt P21964)
T1 sequence (P21964 1-271): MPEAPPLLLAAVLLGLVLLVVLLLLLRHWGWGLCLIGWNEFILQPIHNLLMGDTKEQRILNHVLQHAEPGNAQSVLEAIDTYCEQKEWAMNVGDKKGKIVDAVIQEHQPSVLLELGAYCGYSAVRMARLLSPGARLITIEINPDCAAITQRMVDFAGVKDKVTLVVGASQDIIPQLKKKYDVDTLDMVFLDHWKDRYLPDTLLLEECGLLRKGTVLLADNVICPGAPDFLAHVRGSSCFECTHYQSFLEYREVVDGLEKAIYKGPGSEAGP

[9] = rats
[10] = test system: ATP; conditions: calorie restriction
[11] = humans; remark: listed apart in the source
[12] = during exercise, untrained men and women
[13] = target: T2, ATP:citrate lyase (Homo sapiens, UniProt P53396)
T2 sequence (P53396 1-1101): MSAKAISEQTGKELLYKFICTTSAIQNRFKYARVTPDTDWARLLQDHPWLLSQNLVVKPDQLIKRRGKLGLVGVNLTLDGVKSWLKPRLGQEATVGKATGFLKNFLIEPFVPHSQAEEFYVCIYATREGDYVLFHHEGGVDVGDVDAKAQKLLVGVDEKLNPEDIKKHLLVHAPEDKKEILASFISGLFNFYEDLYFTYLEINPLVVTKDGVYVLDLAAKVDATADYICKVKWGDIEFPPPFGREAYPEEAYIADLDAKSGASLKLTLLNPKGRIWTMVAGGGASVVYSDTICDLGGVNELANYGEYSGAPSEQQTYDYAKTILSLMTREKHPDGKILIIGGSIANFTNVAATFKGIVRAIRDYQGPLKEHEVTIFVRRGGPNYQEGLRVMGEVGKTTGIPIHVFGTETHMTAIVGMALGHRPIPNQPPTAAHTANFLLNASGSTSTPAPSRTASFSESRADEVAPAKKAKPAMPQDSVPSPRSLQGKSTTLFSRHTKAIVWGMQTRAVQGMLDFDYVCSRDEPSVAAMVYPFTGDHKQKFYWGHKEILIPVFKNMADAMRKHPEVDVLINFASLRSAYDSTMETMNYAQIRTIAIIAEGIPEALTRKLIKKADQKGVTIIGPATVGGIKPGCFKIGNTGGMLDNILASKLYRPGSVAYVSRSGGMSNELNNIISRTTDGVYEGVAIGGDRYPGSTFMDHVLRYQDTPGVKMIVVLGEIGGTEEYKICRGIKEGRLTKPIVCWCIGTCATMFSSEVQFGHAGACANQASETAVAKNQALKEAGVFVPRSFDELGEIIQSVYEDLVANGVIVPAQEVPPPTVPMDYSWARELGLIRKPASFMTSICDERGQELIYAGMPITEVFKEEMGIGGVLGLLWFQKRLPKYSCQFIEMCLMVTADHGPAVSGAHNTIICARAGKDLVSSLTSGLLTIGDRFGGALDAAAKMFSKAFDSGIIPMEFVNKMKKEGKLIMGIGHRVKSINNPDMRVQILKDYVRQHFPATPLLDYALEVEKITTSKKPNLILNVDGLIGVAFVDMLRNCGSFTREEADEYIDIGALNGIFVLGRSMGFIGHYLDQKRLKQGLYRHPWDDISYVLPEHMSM

[14] = in vivo; remark: listed apart in the source
[15] = rats; remark: listed apart in the source
[16] = during fatigue
[17] = not given; remark: listed apart in the source
[18] = stroke patients
[19] = elderly patients
[20] = test system: forebrain ischemia; conditions: ischemia maintained for 10 minutes
[21] = healthy women, three-day supplementation
[22] = patients with mild to moderate psychosyndromes such as dementia
[23] = obese rats
[24] = rat, administration of NOPE

glutamate dehydrogenase, sequence (P00367 54-558): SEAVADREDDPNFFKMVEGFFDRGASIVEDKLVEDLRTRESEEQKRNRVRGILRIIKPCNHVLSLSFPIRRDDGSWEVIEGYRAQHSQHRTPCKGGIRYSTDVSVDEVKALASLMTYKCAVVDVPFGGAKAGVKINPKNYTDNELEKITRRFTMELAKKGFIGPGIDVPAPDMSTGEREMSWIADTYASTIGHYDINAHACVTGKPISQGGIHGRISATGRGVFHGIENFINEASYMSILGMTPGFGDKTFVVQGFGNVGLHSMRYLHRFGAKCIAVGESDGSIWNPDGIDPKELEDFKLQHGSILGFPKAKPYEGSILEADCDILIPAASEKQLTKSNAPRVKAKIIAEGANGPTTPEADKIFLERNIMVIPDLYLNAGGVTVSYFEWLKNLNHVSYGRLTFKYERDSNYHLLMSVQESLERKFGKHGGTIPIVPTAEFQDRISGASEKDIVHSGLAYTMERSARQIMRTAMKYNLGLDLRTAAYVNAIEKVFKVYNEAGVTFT

For `CC1=C(/C=C/C(C)=C/C=C/C(C)=C/C=C/C=C(C)/C=C/C=C(C)/C=C/C2=C(C)C(=O)[C@@H](O)CC2(C)C)C(C)(C)C[C@H](O)C1=O` [Astaxanthin], the 5-alpha-reductase inhibition [1] is listed as “inhibiting 5-alpha-reductase”, the safety [2] is listed as “safe” and the exercise-induced muscle damage [3] is listed as “attenuate exercise-induced muscle damage”.
In the case of `[Cr]` [Chromium], the HDL cholesterol [4] is listed as “increase HDL”, the lean mass (clinical) is listed as “increase lean mass” and the body fat (combined with exercise) is listed as “reduce body fat”.
In the case of `O=C(O[C@@H]1Cc2c(O)cc(O)cc2O[C@@H]1c1cc(O)c(O)c(O)c1)c1cc(O)c(O)c(O)c1` [EGCG, (−)-Epigallocatechin-3-gallate], the “food intake, body weight, cholesterol and triglycerides” value [5] is given as “effective at reducing food intake, body weight, cholesterol and triglycerides”, the antioxidant activity [6] is given as “greater than many well known and established antioxidants” and the glutamate dehydrogenase inhibition [7] is given as “inhibitor of glutamate dehydrogenase”. For the same compound, the COMT inhibition [8] was “inhibitor”.
For `C/C=C(\C)C(=O)O[C@@H]1C[C@H]2[C@@H](CC=C3C[C@@H](O[C@H]4C[C@H](OC)[C@H](O[C@H]5C[C@H](OC)[C@H](O[C@@H]6O[C@H](C)[C@@H](O)[C@H](OC)[C@H]6O)[C@@H](C)O5)[C@@H](C)O4)CC[C@@]32C)[C@@]2(O)CC[C@H](C(C)=O)[C@@]12C` [Example P57], the food intake [9] is listed as “reduce food intake” and the ATP [10] is listed as “countered the reduction in ATP normally expected from calorie restriction”.
In the case of `O=C(O)CC(O)(C(=O)O)C(O)C(=O)O` (stereo not drawn) [HCA, Hydroxycitric acid], the caloric intake [11] is listed as “reduce caloric intake”, the fat oxidation [12] is listed as “increase fat oxidation during exercise” and the “ATP:citrate lyase inhibition” value [13] is listed as “competitive inhibitor”. For the same compound, the serotonin levels [14] was “significantly increased” and the “fatty acid synthesis and appetite” value [15] was “inhibit fatty acid synthesis and repress appetite”.
For `N[C@@H](Cc1ccc(O)cc1)C(=O)O` [Tyrosine], the mental performance [16] is given as “improve”, the “mood and cognitive performance” value ([17]; periods of stress) is given as “improve mood and cognitive performance” and the “blood pressure and cognition” value ([17]; under stress) is given as “reduction in blood pressure in addition to cognitive improvement”.
In the case of `CCOC(=O)C1=C[C@]2(CC)CCCN3CCc4c(n1c1ccccc41)[C@@H]32` [Vinpocetine], the cerebral blood flow [18] is listed as “increase cerebral blood flow”, the “improvement in chronic cerebral dysfunction” value [19] is listed as “significant improvement” and the brain cell damage [20] is listed as “prevent brain cell damage”. The memory [21] was “improvement in the memory” and the cognitive performance [22] was “cognitive performance improved”.
For N-olyl-phosphatidyl ethanolamine [NOPE], the body weight [23] is listed as “lower body weight” and the appetite and weight [24] is listed as “causes appetite suppression and subsequent weight loss”.
